Results from US20080220416A1, “Compositions for Inhibiting Cell Growth and Inducing Apoptosis in Cancer Cells and Methods of Use Thereof” (THE BOARD OF TRUSTEES OF THE UNIVERSITY OF ILLINOI, priority 2004, published 2008).
Square brackets hold non-standard residues; d marks the D form. Peptide text beside a SMILES is read from it. * marks the point of attachment. Nle = CCCC[C@H](N)C(=O)O; Cbz = O=C(OCc1ccccc1)*

Experiments:
[1] = test system: T47D:C42 breast cancer cells; experiment: Cytotoxicity assay in T47D:C42 breast cancer cells; format: cell-based; details: T47D:C:4:2; T47D:C42 (p53 wild-type, ERα-negative); 48 h; read-out: IC50, cell growth inhibition
Protocol: Cytotoxicity and growth of transfected cells were estimated by a standard assay used for cancer drug screening, through the total amount of TCA-precipitated cell proteins after drug treatment (Likhitwitayawuid, K et al., 1993, J Nat Prod 56:30-38): 200 μl of cell suspension (10^5 cells/ml) were added to each well in a 96-well plate. After incubation at, 37° C., in 5% CO2 (30 minutes to 72 hours depending on the time course chosen), 50 μl 50% trichloroacetic acid was added to each well. After incubation at 4° C. for 1 hour, precipitates were washed with water 4-5 times and air dried overnight. One hundred μl of SRB solution (0.4% sulforhodamine B in 1% acetic acid, filtered before use) was added to each well for 30 minutes. Wells were washed with 1% acetic acid 4-5 times and air dried. Two hundred μl 10 mM Tris base was added to each well. Plates were shaken for 5-10 minutes and OD at 490 nm (OD490) was recorded via ELISA reader. To assay matrix invasion, 300 μl of cell suspension (10^6 cells/mL in serum-free medium) were added to invasion inserts (BioCoat Matrigel Invasion Chambers, Becton Dickinson, Bedford, Mass.) and incubated for 22 hours at 37° C., 5% CO2. Cells were stained with 0.9% crystal violet in 10% ethanol for 20 minutes. […] After removal of the non-invading cells from the interior of the inserts, stained invading cells were lysed in 10% acetic acid and OD595 was determined. […]

SK-MeI-28 melanoma cells = experiment: Dosing study versus chemotherapeutic agents, killing of SK-MeI-28 melanoma cells; format: cell-based, human; details: SK-MeI-28, mutated p53
Protocol: An initial dosing study comparing z-Leu-Leu-Nle-CHO against three different chemotherapeutic agents (i.e., adriamycin, etoposide, and cisplatin) was performed to evaluate the relative effectiveness of z-Leu-Leu-Nle-CHO in killing melanoma cells. In agreement with a previous report by Soengas, M. S. et al., 2001, Nature 409.207-211, SK-MeI-28 cells, carrying a mutated p53, were relatively resistant to killing by adriamycin, as well as to killing by other chemotherapeutic agents. For SK-MeI-28 melanoma cells, the maximal apoptotic response for adriamycin, etoposide, cisplatin, and z-Leu-Leu-Nle-CHO was 12.0%, 2.6%, 4.0%, and 29.4%, respectively. For RJ002L melanoma cells, the maximal apoptotic response for adriamycin, etoposide, cisplatin, and z-Leu-Leu-Nle-CHO was 23.9%, 12.7%, 3.4%, and 45.7%, respectively.

[2] = test system: cytochrome C and Smac/DLABLO; experiment: Mitochondrial integrity by Western blot in RJ002L melanoma cells; format: cell-based, human; details: 10 μM
Protocol: Western blot analyses following z-Leu-Leu-Nle-CHO and control treatment of RJ002L melanoma cells were performed to determine the effect of z-Leu-Leu-Nle-CHO on pro-survival and pro-apoptotic proteins. Whole cell extracts were prepared and analyzed as described by Denning, M. F. et al., 1998, J Biol Chem 273: 29995-30002, 1998. The enriched mitochondria pellet and mitochondria-free cytosol of melanoma cells were prepared with the APO ALERT cell fraction kit (Clontech Laboratories, Inc. Palo Alto, Calif.) according to the manufacturer's instructions. For Western blot analysis, equal amounts of protein extracted from each sample (20-30 μg) were loaded into pre-cast 7% NuPAGE Tris-acetate gels or 4-12% NuPAGE Bis-tris gels (Invitrogen). Proteins were separated by SDS-PAGE and transferred to polyvinylidene difluoride membranes (Bio-Rad, Hercules, Calif.) using Invitrogen's buffering system. The indicated primary antibodies were incubated for indicated period of time, washed, and visualized by incubation with horseradish peroxidase-conjugated secondary antibodies and chemiluminescent reagents (Roche Diagnostics Corporation, Indianapolis, Ind.). […]
Mitochondrial integrity before and after exposure to z-Leu-Leu-Nle-CHO was evaluated using Western blot analysis as described above.

PC-3 prostate cells = experiment: z-Leu-Leu-Nle-CHO on NOXA and apoptosis in PC-3 prostate cells; format: cell-based; details: 10 μM
NOXA = experiment: Bortezomib on NOXA in SAOS2 osteogenic sarcoma cells (Western blot); format: cell-based; details: SAOS2, p53-null; 1 μM; 24 hr exposure
Protocol: To test whether the NOXA inducing effect of bortezomib is limited to melanomas, SAOS2 cells (ATTC, Rockville, Md.), an osteogenic sarcoma cell line (p53-null) was exposed to 1 μM bortezomib. SAOS2 cells were tested for p53 expression and induction of NOXA expression before and during a 24 hr exposure to bortezomib (1 μM). The cells were assayed by Western blot using antibodies to NOXA, p53 and β-actin as described above.

SMILES	IC50 [1]	maximal apoptotic response (SK-MeI-28 melanoma cells)	release of cytochrome C and Smac/DLABLO from mitochondria [2]	NOXA expression (PC-3 prostate cells; PC-3, p53 null)	dead cells (PC-3 prostate cells; PC-3, after 24 hrs, data not shown)	time course of NOXA induction (NOXA)
CCCC[C@@H](C=O)NC(=O)[C@H](CC(C)C)NC(=O)[C@H](CC(C)C)NC(=O)OCc1ccccc1 [z-Leu-Leu-Nle-CHO, N-benzyloxycarbonyl-leucyl-leucyl-norleucinal] (Cbz-Leu-Leu-[Nle]-aldehyde)	380 nM	29.4%	released into the cytoplasm of RJ002L melanoma cells as early as 1 hr	induced expression of NOXA	> 50%	
CC(C)C[C@H](NC(=O)[C@H](Cc1ccccc1)NC(=O)c1cnccn1)B(O)O [bortezomib, N-(2-pyrazine)carbonyl-L-phenylalanine-L-leucine boronic acid]						induction of NOXA occurred beginning at 3-6 hrs with more prominent levels detected at 18-24 hrs
